From patent US20240344028A1, “Serum-free media for producing adipocytes for animal consumption” (Mosa Meat B.V., priority 2021, published 2024)

These molecules were tested on Adipogenic progenitor cells (assay: 2D adipogenic differentiation with DMAD components removed or at changed concentration). Conditions: 50% of the standard concentration vs 100% control.
Type: cell-based, bovine
Method: (§1) At 90% confluence, proliferated MSCs were trypsinized and seeded in a 96-well collagen coated cell culture plate at 30,000 cells/cm^2 in SF-PM. After 24 hours, adipogenesis was induced by changing SF-PM to DMAD (the serum-free differentiation medium as depicted in Example 1), which was maintained on the cells for a period of 12 days with media changes every 3-4 days. As a control differentiation medium (ctrl), DMEM/F12 with 3% FBS was supplemented with 4 conventional adipogenic inducers (IBMX (Sigma Aldrich-15879; 0.5 mM), dexamethasone (Sigma Aldrich-D4902; 10 μM), rosiglitazone (Sigma Aldrich-R2408; 5 μM) and insulin (Peprotech-10-365; 10 μM)). All 4 inducers were used for the first 3 days of culture and only insulin and rosiglitazone were used for the remaining 9 days.
(§2) Cells were fixed on days 6 and 12 with 4% PFA for 20 minutes at room temperature and washed twice with PBS. Cells were then stained with Hoechst (ThermoFisher 493/503, 1:2000) and BODIPY (Sigma Aldrich 345880, 1:1000) in PBS for 30 minutes. Adipogenic differentiation was quantified using the ImageXPress Pico High Content Analyser (HCA; Molecular devices). The parameters measured were total area of lipid, lipid droplet average area and percentage of positive cells. For the percentage of positive cells, the HCA software assigned BODIPY immunoreactivity to the nearest nuclei, (i.e. a positive cell) and the number of BODIPY positive nuclei was then divided by the total number of nuclei.
Adipogenic progenitor cells were cultured as described in Example 2, with the exception that single components (FGF, EGF, insulin, vitamin C, hydrocortisone, BMP4, lipid concentrate, HEPES, putrescine, progesterone) of the DMAD medium (the serum-free differentiation medium as depicted in Example 1) were removed. In addition, different concentrations (50% and 200%) were tested for EGF, FGF, vitamin C, hydrocortisone and progesterone.

Row | Molecule | effect on adipogenesis (total lipid area) of decreasing the component's concentration in DMAD
1 | EGF: recombinant human EGF, AF-100-15 from Peprotech (NSDSECPLSHDGYCLHDGVCMYIEALDKYACNCVVGYIGERCQYRDLKWWELR; Epidermal growth factor; UniProt P01133 971-1023, looked up) | significantly decreased adipogenesis

Same assay, conditions: single component removed from DMAD

Row | Molecule | effect of removing the component from DMAD on percentage of positive cells and total lipid area
2 | O=S(=O)(O)CCN1CCN(CCO)CC1 [HEPES, 4-(2-hydroxyethyl)-1-piperazineethanesulfonic acid] | did not have significant effects
3 | C[C@]12CCC(=O)C=C1CC[C@@H]1[C@@H]2[C@@H](O)C[C@@]2(C)[C@H]1CC[C@]2(O)C(=O)CO [hydrocortisone] | significantly decreased differentiation
4 | CC(=O)[C@H]1CC[C@H]2[C@@H]3CCC4=CC(=O)CC[C@]4(C)[C@H]3CC[C@]12C [progesterone] | did not have significant effects
5 | NCCCCN [putrescine, butane-1,4-diamine] | did not have significant effects
6 | EGF: recombinant human EGF, AF-100-15 from Peprotech (NSDSECPLSHDGYCLHDGVCMYIEALDKYACNCVVGYIGERCQYRDLKWWELR; Epidermal growth factor; UniProt P01133 971-1023, looked up) | significantly decreased differentiation
7 | FGF: recombinant human FGF2, 100-18B from Peprotech | did not have significant effects
8 | insulin: recombinant human insulin, 10-365 from Peprotech | significantly decreased differentiation

What follows are molecules tested on MSC cells (assay: PPARγ agonist testing in 2D adipogenic differentiation). Conditions: 12 days, indomethacin 50 μM, others 10 μM.
Type: cell-based, bovine
Method: as §1, §2
MSC cells were cultured as described in Example 2. With the exception that indomethacin (50 μM; 17378 from Sigma Aldrich) was replaced with one of the following three PPARΥ agonists to test their efficiency: magnolol (M3445 from Sigma Aldrich) at 10 μM; honokiol (H4914 from Sigma Aldrich) at 10 μM and amorfrutin B (SMB00532 from Sigma Aldrich) at 10 μM.

Row | Molecule | adipogenic differentiation in DMAD with this PPARγ agonist | level of differentiation, ranking among the PPARγ agonists
9 | COc1cc(CCc2ccccc2)c(C(=O)O)c(O)c1C/C=C(\C)CCC=C(C)C [amorfrutin B] | able to undergo adipogenic differentiation | 
10 | C=CCc1ccc(O)c(-c2ccc(O)c(CC=C)c2)c1 [honokiol] | able to undergo adipogenic differentiation | 
11 | COc1ccc2c(c1)c(CC(=O)O)c(C)n2C(=O)c1ccc(Cl)cc1 [indomethacin] | able to undergo adipogenic differentiation | highest level of differentiation
12 | C=CCc1ccc(O)c(-c2cc(CC=C)ccc2O)c1 [magnolol] | able to undergo adipogenic differentiation | highest level of differentiation
